Structures are written as SMILES. Some results are limits rather than exact numbers.

Assay [1] concerns the target T1, BRG1 (Homo sapiens, UniProt P51532).
T1 construct: either BRM primary antibody (Cell signaling Cat #11966) or BRG primary antibody (Abcam, ab 110641); endogenous in cells; host or cells: SW1573
The experiment in a line: Immunofluorescence assay for BRG1 degradation in SW1573 cells. In kind it is cell-based. The following applies: 20 hours incubation; for DC50: immunofluorescence mean nuclear signal, read-out: BRG1 IF Degradation IC50; for Dmax: SW1573, 20 h, read-out: BRG1 IF Degradation Sinf (%). As to the method: (§1) Example B-2: Immunofluorescence Assay for BRM and BRG1 Degraders
(§2) SW1573 cells were seeded at 3000 cells/well in 384 well plates. The next day, compounds were added using an Echo dispenser. After 20 hours of incubation with compound, cells were fixed with 4% formaldehyde then permeabilized with 0.2% Triton X-100 and blocked with 10% FCS. Fixed and permeabilized cells were treated overnight at 4° C. with either BRM primary antibody (Cell signaling Cat #11966) or BRG primary antibody (Abcam, ab 110641). Finally, cells were treated with fluorescently labeled secondary antibodies for 1 hr (Donkey anti-Rabbit IgG AF488, Life Technologies, A21206) and Hoechst nuclear stain (#H3569) was added for 30 minutes. Cells were washed with PBS in between each step and before imaging on an Opera Phenix microscope (Perkin Elmer). Harmony software (Perking Elmer) was used to quantify the mean nuclear signaling intensity of BRM or BRG signaling per cell in each well. Dose responses were determined from the concentration dependent response of mean nuclear signal intensity with data normalized to a known degrader control. Dose response curves were fit to a floating maximum to allow for calculation of the Dmax.
(§3) Note that, in Table 5, the “Compound Number” corresponds to that used in Table 1. In Table 5, for BRM and BRG1 IF degradation IC50 (μM): A indicates <0.010 μM, B indicates 0.010-0.10 μM, and C indicates >0.10 μM; and for BRM and BRG1 IF degradation Sinf % D indicates 0-−30%, E indicates −30%-−70%, F indicates −71%-−120% and ND indicates the value was not determined.

The target in assay [2] is BRM (Homo sapiens, UniProt P51531). As to the kind of experiment: Immunofluorescence assay for BRM degradation in SW1573 cells. In kind it is cell-based. On the set-up: treated overnight at 4° C. with either BRM primary antibody (Cell signaling Cat #11966) or BRG primary antibody; endogenous in cells; host or cells: SW1573. The following applies: 20 hours incubation; for DC50: immunofluorescence mean nuclear signal, read-out: BRM IF Degradation IC50; for BRM IF Degradation Sinf (%): normalized to a known degrader control. As to the method:
as §1, §2, §3

Setting [3] is: normalized to a known degrader control.

Sequence of BRM (P51531 whole entry): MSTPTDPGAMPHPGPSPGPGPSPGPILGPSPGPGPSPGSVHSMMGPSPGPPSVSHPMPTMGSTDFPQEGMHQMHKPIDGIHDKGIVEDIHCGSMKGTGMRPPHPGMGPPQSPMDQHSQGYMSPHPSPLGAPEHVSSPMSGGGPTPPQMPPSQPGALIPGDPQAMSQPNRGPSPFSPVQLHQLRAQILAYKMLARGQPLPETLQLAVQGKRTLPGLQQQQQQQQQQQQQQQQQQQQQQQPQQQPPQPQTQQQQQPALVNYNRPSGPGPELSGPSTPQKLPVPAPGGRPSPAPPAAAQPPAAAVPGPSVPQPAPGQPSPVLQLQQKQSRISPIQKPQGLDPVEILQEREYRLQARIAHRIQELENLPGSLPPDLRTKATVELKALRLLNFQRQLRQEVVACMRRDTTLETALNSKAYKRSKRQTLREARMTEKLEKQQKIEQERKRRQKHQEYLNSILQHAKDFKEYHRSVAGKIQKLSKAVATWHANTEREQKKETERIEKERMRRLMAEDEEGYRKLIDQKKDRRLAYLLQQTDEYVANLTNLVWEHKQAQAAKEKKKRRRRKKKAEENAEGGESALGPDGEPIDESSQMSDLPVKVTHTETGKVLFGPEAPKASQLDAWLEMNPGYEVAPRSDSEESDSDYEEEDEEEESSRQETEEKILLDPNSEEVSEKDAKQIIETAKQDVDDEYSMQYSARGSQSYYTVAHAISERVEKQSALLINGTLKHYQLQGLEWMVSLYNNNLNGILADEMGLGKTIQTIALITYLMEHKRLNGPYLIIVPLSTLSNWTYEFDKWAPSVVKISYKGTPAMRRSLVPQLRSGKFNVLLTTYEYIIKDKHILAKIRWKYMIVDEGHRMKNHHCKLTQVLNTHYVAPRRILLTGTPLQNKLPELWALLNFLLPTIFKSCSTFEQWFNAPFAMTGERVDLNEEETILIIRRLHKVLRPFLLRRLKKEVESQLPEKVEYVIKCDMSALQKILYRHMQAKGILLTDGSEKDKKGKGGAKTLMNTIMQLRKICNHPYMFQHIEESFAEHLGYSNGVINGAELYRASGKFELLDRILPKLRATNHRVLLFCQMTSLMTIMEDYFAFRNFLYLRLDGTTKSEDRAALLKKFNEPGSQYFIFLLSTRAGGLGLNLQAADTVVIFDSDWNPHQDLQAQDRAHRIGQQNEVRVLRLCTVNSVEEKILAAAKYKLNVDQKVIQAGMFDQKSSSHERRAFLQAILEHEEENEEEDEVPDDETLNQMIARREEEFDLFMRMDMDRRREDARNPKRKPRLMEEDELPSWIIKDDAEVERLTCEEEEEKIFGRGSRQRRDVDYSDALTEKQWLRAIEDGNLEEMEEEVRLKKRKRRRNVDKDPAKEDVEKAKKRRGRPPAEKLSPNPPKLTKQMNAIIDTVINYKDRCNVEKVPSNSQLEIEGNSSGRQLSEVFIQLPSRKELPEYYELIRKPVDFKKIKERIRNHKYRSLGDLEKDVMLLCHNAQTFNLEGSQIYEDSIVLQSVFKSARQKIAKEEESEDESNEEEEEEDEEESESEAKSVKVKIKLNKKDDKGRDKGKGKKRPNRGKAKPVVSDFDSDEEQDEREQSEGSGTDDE
T1 sequence (P51532 whole entry): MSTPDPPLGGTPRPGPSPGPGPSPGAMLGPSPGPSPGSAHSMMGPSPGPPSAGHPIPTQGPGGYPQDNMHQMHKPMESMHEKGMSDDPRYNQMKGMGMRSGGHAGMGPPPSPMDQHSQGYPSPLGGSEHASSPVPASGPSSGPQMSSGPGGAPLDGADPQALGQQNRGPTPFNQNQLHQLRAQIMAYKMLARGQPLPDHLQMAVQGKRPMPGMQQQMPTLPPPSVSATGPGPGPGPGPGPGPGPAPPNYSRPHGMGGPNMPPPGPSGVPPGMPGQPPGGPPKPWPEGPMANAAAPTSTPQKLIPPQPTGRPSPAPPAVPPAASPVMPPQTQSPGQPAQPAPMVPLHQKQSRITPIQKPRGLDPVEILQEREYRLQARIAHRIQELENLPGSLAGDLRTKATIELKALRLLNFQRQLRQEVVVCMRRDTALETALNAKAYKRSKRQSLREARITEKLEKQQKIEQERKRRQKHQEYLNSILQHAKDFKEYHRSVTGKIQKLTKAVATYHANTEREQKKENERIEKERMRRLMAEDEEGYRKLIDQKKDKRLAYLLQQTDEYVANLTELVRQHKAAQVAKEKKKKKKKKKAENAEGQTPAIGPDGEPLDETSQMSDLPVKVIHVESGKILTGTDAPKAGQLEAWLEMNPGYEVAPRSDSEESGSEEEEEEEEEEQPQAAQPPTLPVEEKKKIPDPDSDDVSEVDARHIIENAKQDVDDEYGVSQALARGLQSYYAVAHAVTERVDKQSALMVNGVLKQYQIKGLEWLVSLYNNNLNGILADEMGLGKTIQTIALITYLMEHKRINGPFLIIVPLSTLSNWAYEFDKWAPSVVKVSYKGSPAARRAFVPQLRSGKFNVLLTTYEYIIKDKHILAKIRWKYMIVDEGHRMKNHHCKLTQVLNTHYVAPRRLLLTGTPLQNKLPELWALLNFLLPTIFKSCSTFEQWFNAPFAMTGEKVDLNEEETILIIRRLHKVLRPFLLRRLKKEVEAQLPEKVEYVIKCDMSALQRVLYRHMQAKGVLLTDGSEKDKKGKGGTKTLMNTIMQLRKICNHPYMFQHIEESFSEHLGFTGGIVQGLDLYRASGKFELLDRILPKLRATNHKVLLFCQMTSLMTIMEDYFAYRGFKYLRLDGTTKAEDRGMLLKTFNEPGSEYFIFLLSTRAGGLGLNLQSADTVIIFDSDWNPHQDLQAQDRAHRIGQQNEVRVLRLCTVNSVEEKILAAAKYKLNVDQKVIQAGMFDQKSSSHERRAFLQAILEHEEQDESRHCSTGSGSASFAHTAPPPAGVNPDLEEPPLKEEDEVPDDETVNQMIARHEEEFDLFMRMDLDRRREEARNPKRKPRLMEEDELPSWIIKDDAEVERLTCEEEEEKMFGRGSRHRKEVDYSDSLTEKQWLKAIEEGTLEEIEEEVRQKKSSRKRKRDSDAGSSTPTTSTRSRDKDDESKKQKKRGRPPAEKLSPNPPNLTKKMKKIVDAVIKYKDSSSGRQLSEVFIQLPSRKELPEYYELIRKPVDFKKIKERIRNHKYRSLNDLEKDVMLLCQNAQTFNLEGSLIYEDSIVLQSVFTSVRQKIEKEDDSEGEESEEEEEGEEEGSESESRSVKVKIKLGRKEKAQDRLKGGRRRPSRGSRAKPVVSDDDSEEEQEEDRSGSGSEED

As for `Nc1nnc(-c2ccccc2O)cc1N1CC2CCC(C1)N2c1ccnc(C#CCN2CC3CCCC3C2)c1` (centres unmarked) [Compound 63, 2-[5-[8-[2-[3-(3,3a,4,5,6,6a-hexahydro-1H-cyclopenta[c]pyrrol-2-yl)prop-1-ynyl]-4-pyridyl]-3,8-diazabicyclo[3.2.1]octan-3-yl]-6-amino-pyridazin-3-yl]phenol], the DC50 in assay [1] is under 10 nM. The Dmax in assay [1] (setting [3]) was in the range of 30 to 70%. Also, in assay [2], the DC50 is under 10 nM and the “BRM IF Degradation Sinf (%)” value is given as “F (F indicates −71%-−120%)”.

Turning to `CC[C@H]1COCCN1CC#Cc1cc(N2C3CCC2CN(c2cc(-c4ccccc4O)nnc2N)C3)ccn1` [Compound 64, 2-[6-amino-5-[8-[2-[3-[(3S)-3-ethylmorpholin-4-yl]prop-1-ynyl]-4-pyridyl]-3,8-diazabicyclo[3.2.1]octan-3-yl]pyridazin-3-yl]phenol], the DC50 in assay [1] and in assay [2] was 10 to 100 nM in each case. Also, the Dmax in assay [1] (setting [3]) lay within 0 to 30%. Besides, in assay [2], the “BRM IF Degradation Sinf (%)” value was “E (E indicates −30%-−70%)”.

On to `Nc1nnc(-c2ccccc2O)cc1N1CC2CCC(C1)N2c1ccnc(C#CCN2CCC[C@@H]2CO)c1` [Compound 65, 2-[6-amino-5-[8-[2-[3-[(2R)-2-(hydroxymethyl)pyrrolidin-1-yl]prop-1-ynyl]-4-pyridyl]-3,8-diazabicyclo[3.2.1]octan-3-yl]pyridazin-3-yl]phenol], for which the DC50 in assay [1] was 10 to 100 nM. The Dmax in assay [1] (setting [3]) lay within 0 to 30%. Besides, in assay [2], the DC50 is under 10 nM and the “BRM IF Degradation Sinf (%)” value was “E (E indicates −30%-−70%)”.

Consider `Nc1nnc(-c2ccccc2O)cc1N1CC2CCC(C1)N2c1ccnc(C#CCN2CC3(CCCCO3)C2)c1` [Compound 66, 2-[6-amino-5-[8-[2-[3-(5-oxa-2-azaspiro[3.5]nonan-2-yl)prop-1-ynyl]-4-pyridyl]-3,8-diazabicyclo[3.2.1]octan-3-yl]pyridazin-3-yl]phenol], for which the DC50 in assay [1] was 10 to 100 nM; in assay [2], under 10 nM. For the same molecule, the Dmax in assay [1] (setting [3]) lay in the range of 30 to 70%. In assay [2], the “BRM IF Degradation Sinf (%)” value is “F (F indicates −71%-−120%)”.

Turning to `Nc1nnc(-c2ccccc2O)cc1N1CC2CCC(C1)N2c1ccnc(C#CCN2CCN3CCCC3C2)c1` (centres unmarked) [Compound 67, 2-[5-[8-[2-[3-(3,4,6,7,8,8a-hexahydro-1H-pyrrolo[1,2-a]pyrazin-2-yl)prop-1-ynyl]-4-pyridyl]-3,8-diazabicyclo[3.2.1]octan-3-yl]-6-amino-pyridazin-3-yl]phenol], in assay [1], the DC50 was under 10 nM. Further, the Dmax in assay [1] (setting [3]) lay within 0 to 30%. For the same molecule, in assay [2], the DC50 was in the range of 10 to 100 nM and the “BRM IF Degradation Sinf (%)” value was “E (E indicates −30%-−70%)”.

For the molecule `Nc1nnc(-c2ccccc2O)cc1N1CC2CCC(C1)N2c1ccnc(C#CCN2CC3CC3C2)c1` (centres unmarked) [Compound 68, 2-[6-amino-5-[8-[2-[3-(3-azabicyclo[3.1.0]hexan-3-yl)prop-1-ynyl]-4-pyridyl]-3,8-diazabicyclo[3.2.1]octan-3-yl]pyridazin-3-yl]phenol;], the DC50 in assay [1] was under 10 nM. Further, in assay [1] (setting [3]), the Dmax lay within 30 to 70%. Moreover, in assay [2], the DC50 is under 10 nM and the “BRM IF Degradation Sinf (%)” value is on record as “F (F indicates −71%-−120%)”.

As for `Nc1nnc(-c2ccccc2O)cc1N1CC2CCC(C1)N2c1ccnc(C#CCN2CCC23CCOC3)c1` (centres unmarked) [Compound 69, 2-[6-amino-5-[8-[2-[3-(7-oxa-1-azaspiro[3.4]octan-1-yl)prop-1-ynyl]-4-pyridyl]-3,8-diazabicyclo[3.2.1]octan-3-yl]pyridazin-3-yl]phenol], the DC50 in assay [1] is under 10 nM. Moreover, the “BRG1 IF Degradation Sinf (%)” value in assay [1] (setting [3]) is “E (E indicates −30%-−70%)”. In addition, in assay [2], the DC50 is under 10 nM and the “BRM IF Degradation Sinf (%)” value is given as “F (F indicates −71%-−120%)”.

As for `Nc1nnc(-c2ccccc2O)cc1N1CC2CCC(C1)N2c1ccnc(C#CCN2CCCOCC2)c1` [Compound 70, 2-[6-amino-5-[8-[2-[3-(l,4-oxazepan-4-yl)prop-1-ynyl]-4-pyridyl]-3,8-diazabicyclo[3.2.1]octan-3-yl]pyridazin-3-yl]phenol], the DC50 in assay [1] and in assay [2] was under 10 nM throughout. Also, in assay [1] (setting [3]), the Dmax lay in the range of 30 to 70%. Also, the “BRM IF Degradation Sinf (%)” value in assay [2] is “E (E indicates −30%-−70%)”.

Take `Nc1nnc(-c2ccccc2O)cc1N1CC2CCC(C1)N2c1ccnc(C#CCN2CCC(O)CC2)c1` [Compound 71, 1-[3-[4-[3-[3-amino-6-(2-hydroxyphenyl)pyridazin-4-yl]-3,8-diazabicyclo[3.2.1]octan-8-yl]-2-pyridyl]prop-2-ynyl]piperidin-4-ol]: the DC50 in assay [1] is under 10 nM. Moreover, in assay [1] (setting [3]), the Dmax fell in the range of 30 to 70%. Besides, in assay [2], the DC50 was in the range of 10 to 100 nM and the “BRM IF Degradation Sinf (%)” value was “E (E indicates −30%-−70%)”.

Turning to `Nc1nnc(-c2ccccc2O)cc1N1CC2CCC(C1)N2c1ccnc(C#CCN2CCn3cncc3C2)c1` [Compound 72, 2-[6-amino-5-[8-[2-[3-(6,8-dihydro-5H-imidazo[1,5-a]pyrazin-7-yl)prop-1-ynyl]-4-pyridyl]-3,8-diazabicyclo[3.2.1]octan-3-yl]pyridazin-3-yl]phenol], the DC50 in assay [1] is over 100 nM. In assay [2], the DC50 is 10 to 100 nM and the “BRM IF Degradation Sinf (%)” value was “E (E indicates −30%-−70%)”.

Consider `Nc1nnc(-c2ccccc2O)cc1N1CC2CCC(C1)N2c1ccnc(C#CCN2CCOCC23CC3)c1` [Compound 73, 2-[6-amino-5-[8-[2-[3-(7-oxa-4-azaspiro[2.5]octan-4-yl)prop-1-ynyl]-4-pyridyl]-3,8-diazabicyclo[3.2.1]octan-3-yl]pyridazin-3-yl]phenol], for which the DC50 in assay [1] is over 100 nM. Besides, in assay [2], the DC50 is over 100 nM and the “BRM IF Degradation Sinf (%)” value is “E (E indicates −30%-−70%)”.

For the molecule `Nc1nnc(-c2ccccc2O)cc1N1CC2CCC(C1)N2c1ccnc(C#CCN2CCOC3CC32)c1` (centres unmarked) [Compound 74, 2-[6-amino-5-[8-[2-[3-(2-oxa-5-azabicyclo[4.1.0]heptan-5-yl)prop-1-ynyl]-4-pyridyl]-3,8-diazabicyclo[3.2.1]octan-3-yl]pyridazin-3-yl]phenol], the results for the DC50 in assay [1] and in assay [2] were over 100 nM and 10 to 100 nM, respectively. For the same molecule, the “BRM IF Degradation Sinf (%)” value in assay [2] was “E (E indicates −30%-−70%)”.

Consider `C[C@H]1CCN(CC#Cc2cc(N3C4CCC3CN(c3cc(-c5ccccc5O)nnc3N)C4)ccn2)C1` [Compound 75, 2-(6-amino-5-(8-(2-(3-((S)-3-methylpyrrolidin-1-yl)prop-1-yn-1-yl)pyridin-4-yl)-3,8-diazabicyclo[3.2.1]octan-3-yl)pyridazin-3-yl)phenol], for which the DC50 in assay [1] is under 10 nM. Besides, the Dmax in assay [1] (setting [3]) was 30 to 70%. Also, in assay [2], the DC50 was under 10 nM and the “BRM IF Degradation Sinf (%)” value was “E (E indicates −30%-−70%)”.

Take `Nc1nnc(-c2ccccc2O)cc1N1CC2CCC(C1)N2c1ccnc(C#CCN2CC3COCC3C2)c1` (centres unmarked) [Compound 76, 2-[5-[8-[2-[3-(1,3,3a,4,6,6a-hexahydrofuro[3,4-c]pyrrol-5-yl)prop-1-ynyl]-4-pyridyl]-3,8-diazabicyclo[3.2.1]octan-3-yl]-6-amino-pyridazin-3-yl]phenol]: in assay [1], the DC50 is under 10 nM. In assay [1] (setting [3]), the Dmax was 0 to 30%. For the same molecule, in assay [2], the DC50 was under 10 nM and the “BRM IF Degradation Sinf (%)” value is recorded as “E (E indicates −30%-−70%)”.

As for `Nc1nnc(-c2ccccc2O)cc1N1CC2CCC(C1)N2c1ccnc(C#CCN2CCOC3(CCC3)C2)c1` [Compound 77], the DC50 in assay [1] was over 100 nM; in assay [2], 10 to 100 nM. In assay [2], the “BRM IF Degradation Sinf (%)” value was “E (E indicates −30%-−70%)”.

For the molecule `Nc1nnc(-c2ccccc2O)cc1N1CC2CCC(C1)N2c1ccnc(C#CCN2CCC3CC[C@@H](O)C32)c1` (stereo partly drawn) [Compound 78, (6R)-1-[3-[4-[3-[3-amino-6-(2-hydroxyphenyl)pyridazin-4-yl]-3,8-diazabicyclo[3.2.1]octan-8-yl]-2-pyridyl]prop-2-ynyl]-3,3a,4,5,6,6a-hexahydro-2H-cyclopenta[b]pyrrol-6-ol], in assay [1], the DC50 was over 100 nM. Further, in assay [2], the DC50 is under 10 nM and the “BRM IF Degradation Sinf (%)” value was “E (E indicates −30%-−70%)”.

As for `CC1CN(CC#Cc2cc(N3C4CCC3CN(c3cc(-c5ccccc5O)nnc3N)C4)ccn2)CC(C)O1` (centres unmarked) [Compound 79, 2-[6-amino-5-[8-[2-[3-(2,6-dimethylmorpholin-4-yl)prop-1-ynyl]-4-pyridyl]-3,8-diazabicyclo[3.2.1]octan-3-yl]pyridazin-3-yl]phenol], the DC50 in assay [1] is over 100 nM. Moreover, in assay [2], the DC50 lay within 10 to 100 nM and the “BRM IF Degradation Sinf (%)” value was “E (E indicates −30%-−70%)”.
